Results taken from ChEMBL document CHEMBL1159280, “Idiospermuline, a trimeric pyrrolidinoindoline alkaloid from the seed of Idiospermum australiense” (1995).
Active and inactive are the calls of the source. The calls are words filed in the database; no cut-off is given here.

Key:
Format in all cases: functional
Rattus norvegicus [1] = species: Rattus norvegicus; experiment: Effect on neurochemical transmission in Sprague-Dawley rat cortical wedge assessed as hyperpolarization activity at 50 to 500 uM
[2] = Reduction of acetylcholine-induced depolarizing response in Sprague-Dawley rat cortical wedge at 50 uM relative to control; parameters: scale not given: the % may be the effect or the level left
[3] = Reduction of acetylcholine-induced depolarizing response in Sprague-Dawley rat cortical wedge at 10 uM relative to control; parameters: scale not given: the % may be the effect or the level left
Rattus norvegicus [4] = species: Rattus norvegicus; experiment: Effect on neurochemical transmission in Sprague-Dawley rat cortical wedge assessed as hyperpolarization activity at 10 to 100 uM

SMILES | Activity (Rattus norvegicus [1]) | Activity [2] [%] | Activity [3] [%] | Activity (Rattus norvegicus [4])
CN1CC[C@]23c4ccccc4N[C@H]1[C@]21CCN(C)[C@H]3Nc2ccccc21 [CALYCANTHINE] | Active | 20.4 |  | 
CN1CC[C@]2([C@]34CCN(C)[C@H]3Nc3ccccc34)c3ccccc3N[C@H]12 [CHIMONANTHINE] |  |  | 58.3 | Active
CN1CC[C@@]2(c3cccc4c3N[C@H]3N(C)CC[C@@]43[C@@]34CCN(C)[C@@H]3N(C)c3ccccc34)c3ccccc3N(C)[C@@H]12 [IDIOSPERMULINE] |  |  | 61.2 | Active
